According to patent US20250031699A1, “Method for Controlling Parasitic Plants” (AJINOMOTO CO., INC., priority 2022, published 2025):

Tested on: Orobanche ramosa L.
Assay: Germination inducer activity in Orobanche ramosa L. (germination rate of seeds)
Type: in vivo
Experimental: In this Example, the germination inducer activity of Compound 1 on Orobanche ramosa L. was analyzed by measuring the germination rate. Orobanche ramosa L. is a parasitic plant of tomato, which is now classified as Phelipanche ramosa (L.) Pomel. The Orobanche ramosa L. used herein is a species that parasitizes tomatoes native to Portugal. Dried seeds of Orobanche ramosa L. were conditioned for one week in water from 20° C. to 26° C. in a dark and humid place. The compounds to be tested were each added in an amount of 2 mL to a Petri dish so as to give a final concentration of 1 μM or 100 nM (Compound 1), or 0.34 μM (GR24). After incubation from 20° C. to 26° C. in a dark and humid place for 1 week after the addition of the treatment solution, the germination rate was evaluated by counting the number of germinated seeds under a stereomicroscope.
In the table, “Germination” indicates the germination inducer activity of Compound 1. When the relative value of the germination rate was 4% or more, Compound 1 was marked with (+).

COC(=O)[C@H](CCCCNC(=O)OC1C=C(C)C(=O)O1)NC(=O)OC(C)(C)C (some centres unmarked) [Compound 1]
germination inducer activity for Orobanche ramosa L. (1 μM or 100 nM): exhibited germination inducer activity | Germination (Compound 1 at 1 μM or 100 nM, 20° C. to 26° C., dark, 1 week): + (When the relative value of the germination rate was 4% or more, Compound 1 was marked with (+))
